The values that follow come from the OligoGym collection.

HELM strings list units from the 5' end as sugar, base in round brackets, then linkage (d deoxyribose, r ribose, m 2'-O-methyl, p phosphodiester). Strings are as the collection lists them, not checked against the first reports. ss, as = sense and antisense strand; [lna] = locked nucleic acid (LNA); [una] = unlocked nucleic acid; [s4r] = 4'-thioribose; [fl2r] = 2'-fluoro
Note: test system not given here.

For the series the following is noted: siRNA.
Turning to “RNA1{r(A)p.r(G)p.r(A)p.r(A)p.r(G)p.[fl2r](U)p.r(A)p.r(C)p.[fl2r](C)p.r(A)p.r(G)p.r(G)p.r(A)p.r(G)p.r(G)p.r(C)p.r(G)p.r(U)p.r(U)p.r(T)p.r(T)}|RNA2{r(A)p.r(A)p.r(C)p.r(G)p.r(C)p.r(C)p.r(U)p.r(C)p.r(C)p.[fl2r](U)p.r(G)p.r(G)p.[fl2r](U)p.r(A)p.r(C)p.r(U)p.r(U)p.r(C)p.r(U)p.r(T)p.r(T)}$$$RNA1{StrandType:ss}|RNA2{StrandType:as}$”, the target mRNA knockdown amounted to 57%.

“RNA1{m(U)p.r(A)p.r(A)p.r(A)p.r(C)p.r(U)p.r(U)p.m(U)p.r(G)p.r(G)p.r(G)p.r(G)p.r(A)p.r(A)p.r(G)p.r(G)p.r(G)p.r(A)p.r(G)p.r(T)p.r(T)}|RNA2{r(C)p.r(U)p.r(C)p.r(C)p.r(C)p.r(U)p.r(U)p.r(C)p.r(C)p.r(C)p.m(C)p.r(A)p.r(A)p.r(A)p.r(G)p.r(U)p.r(U)p.m(U)p.r(A)p.r(T)p.r(T)}$$$RNA1{StrandType:ss}|RNA2{StrandType:as}$” showed a target mRNA knockdown of 67%.

As to “RNA1{r(A)p.r(G)p.r(A)p.r(A)p.r(G)p.r(G)p.r(A)p.m(C)p.m(U)p.r(A)p.m(C)p.m(U)p.r(A)p.r(A)p.m(C)p.m(C)p.m(U)p.m(C)p.m(C)p.r(T)p.r(T)}|RNA2{r(G)p.r(G)p.r(A)p.r(G)p.r(G)p.r(U)p.r(U)p.r(A)p.r(G)p.r(U)p.r(A)p.r(G)p.r(U)p.r(C)p.r(C)p.r(U)p.r(U)p.r(C)p.r(U)p.r(T)p.r(T)}$$$RNA1{StrandType:ss}|RNA2{StrandType:as}$”, the target mRNA knockdown was 80%.

On to “RNA1{m(A)p.r(G)p.m(C)p.r(C)p.m(A)p.r(C)p.m(A)p.r(U)p.m(U)p.r(U)p.m(C)p.r(U)p.m(A)p.r(G)p.m(G)p.r(A)p.m(G)p.r(A)p.r(U)p.r(T)p.r(T)}|RNA2{r(A)p.r(U)p.r(C)p.r(U)p.r(C)p.r(C)p.r(U)p.r(A)p.r(G)p.r(A)p.r(A)p.r(A)p.r(U)p.r(G)p.r(U)p.r(G)p.r(G)p.r(C)p.r(U)p.r(T)p.r(T)}$$$RNA1{StrandType:ss}|RNA2{StrandType:as}$”, for which the target mRNA knockdown worked out at 19%.

The substance “RNA1{r(C)p.[fl2r](U)p.r(A)p.r(G)p.r(A)p.r(G)p.r(G)p.r(A)p.r(U)p.r(C)p.r(U)p.r(U)p.r(G)p.r(A)p.r(A)p.r(G)p.r(A)p.r(C)p.r(C)p.r(T)p.r(T)}|RNA2{r(G)p.r(G)p.r(U)p.r(C)p.r(U)p.r(U)p.r(C)p.r(A)p.r(A)p.r(G)p.r(A)p.r(U)p.r(C)p.r(C)p.r(U)p.r(C)p.r(U)p.r(A)p.r(G)p.r(T)p.r(T)}$$$RNA1{StrandType:ss}|RNA2{StrandType:as}$” registered a target mRNA knockdown of 81%.

“RNA1{r(A)p.r(U)p.m(C)p.r(A)p.r(G)p.r(A)p.r(G)p.r(G)p.r(G)p.r(A)p.r(G)p.r(G)p.r(U)p.r(C)p.r(U)p.m(U)p.r(A)p.r(G)p.r(A)p.r(T)p.r(T)}|RNA2{r(U)p.r(C)p.m(U)p.r(A)p.r(A)p.r(G)p.r(A)p.r(C)p.r(C)p.r(U)p.r(C)p.r(C)p.r(C)p.r(U)p.r(C)p.m(U)p.r(G)p.r(A)p.r(U)p.r(T)p.r(T)}$$$RNA1{StrandType:ss}|RNA2{StrandType:as}$” yielded a target mRNA knockdown of 68%.

Regarding “RNA1{r(G)p.r(A)p.r(G)p.r(A)p.r(G)p.r(A)p.r(G)p.r(A)p.r(C)p.r(G)p.r(G)p.m(U)p.m(G)p.r(G)p.r(A)p.r(A)p.r(G)p.r(A)p.r(A)p.r(T)p.r(T)}|RNA2{r(U)p.r(U)p.r(C)p.r(U)p.r(U)p.r(C)p.m(C)p.r(A)p.r(C)p.r(C)p.r(G)p.r(U)p.r(C)p.r(U)p.r(C)p.r(U)p.r(C)p.r(U)p.r(C)p.r(T)p.r(T)}$$$RNA1{StrandType:ss}|RNA2{StrandType:as}$”, the target mRNA knockdown worked out at 72%.

Take “RNA1{m(A)p.r(U)p.m(C)p.r(U)p.m(A)p.r(C)p.m(C)p.r(C)p.m(A)p.r(G)p.m(C)p.r(U)p.m(C)p.r(U)p.m(C)p.r(C)p.m(C)p.r(U)p.m(U)p.r(T)p.r(T)}|RNA2{r(A)p.r(A)p.r(G)p.r(G)p.r(G)p.r(A)p.r(G)p.r(A)p.r(G)p.r(C)p.m(U)p.r(G)p.r(G)p.r(G)p.m(U)p.r(A)p.r(G)p.r(A)p.m(U)p.r(T)p.r(T)}$$$RNA1{StrandType:ss}|RNA2{StrandType:as}$”: the target mRNA knockdown came to 43%.

For “RNA1{m(G)p.r(A)p.m(A)p.r(G)p.m(A)p.r(G)p.m(C)p.r(C)p.m(U)p.r(A)p.m(C)p.r(A)p.m(C)p.r(A)p.m(A)p.r(C)p.m(C)p.r(C)p.m(U)p.r(T)p.r(T)}|RNA2{r(A)p.r(G)p.r(G)p.r(G)p.r(U)p.r(U)p.r(G)p.r(U)p.m(G)p.r(U)p.m(A)p.r(G)p.m(G)p.r(C)p.m(U)p.r(C)p.m(U)p.r(U)p.m(C)p.r(T)p.r(T)}$$$RNA1{StrandType:ss}|RNA2{StrandType:as}$”, the target mRNA knockdown was determined as 50%.

For “RNA1{m(G)p.r(U)p.m(A)p.r(U)p.m(C)p.r(C)p.m(G)p.r(A)p.m(A)p.r(G)p.m(A)p.r(C)p.m(G)p.r(A)p.m(A)p.r(G)p.m(C)p.r(U)p.m(A)p.r(T)p.r(T)}|RNA2{r(U)p.m(A)p.r(G)p.r(C)p.r(U)p.r(U)p.r(C)p.r(G)p.r(U)p.r(C)p.r(U)p.r(U)p.r(C)p.r(G)p.r(G)p.m(A)p.r(U)p.m(A)p.r(C)p.r(T)p.r(T)}$$$RNA1{StrandType:ss}|RNA2{StrandType:as}$”, the target mRNA knockdown is 30%.

On to “RNA1{m(A)p.m(A)p.m(G)p.r(G)p.r(A)p.r(G)p.r(A)p.r(U)p.r(C)p.r(A)p.r(A)p.r(C)p.r(A)p.r(U)p.r(U)p.r(U)p.m(U)p.m(C)p.m(A)p.r(T)p.r(T)}|RNA2{m(U)p.m(G)p.m(A)p.r(A)p.r(A)p.r(A)p.r(U)p.r(G)p.r(U)p.r(U)p.r(G)p.r(A)p.r(U)p.r(C)p.r(U)p.r(C)p.m(C)p.m(U)p.m(U)p.r(T)p.r(T)}$$$RNA1{StrandType:ss}|RNA2{StrandType:as}$”, for which the target mRNA knockdown stood at 76%.

In turn, “RNA1{m(G)p.r(C)p.m(G)p.m(A)p.m(G)p.r(C)p.m(A)p.m(G)p.m(A)p.m(G)p.m(A)p.m(A)p.r(U)p.r(C)p.r(U)p.m(A)p.r(C)p.r(C)p.r(U)p.r(T)p.r(T)}|RNA2{r(A)p.r(G)p.r(G)p.r(U)p.r(A)p.r(G)p.r(A)p.r(U)p.r(U)p.r(C)p.r(U)p.r(C)p.r(U)p.r(G)p.r(C)p.r(U)p.r(C)p.r(G)p.r(C)p.r(T)p.r(T)}$$$RNA1{StrandType:ss}|RNA2{StrandType:as}$” came in with a target mRNA knockdown of 65%.

In the case of “RNA1{r(G)p.r(C)p.r(G)p.r(A)p.r(G)p.m(C)p.r(A)p.r(G)p.r(A)p.r(G)p.r(A)p.r(A)p.r(U)p.r(C)p.m(U)p.r(A)p.r(C)p.r(C)p.r(U)p.r(T)p.r(T)}|RNA2{r(A)p.r(G)p.r(G)p.m(U)p.r(A)p.r(G)p.r(A)p.r(U)p.r(U)p.r(C)p.r(U)p.r(C)p.m(U)p.r(G)p.r(C)p.r(U)p.r(C)p.r(G)p.r(C)p.r(T)p.r(T)}$$$RNA1{StrandType:ss}|RNA2{StrandType:as}$”, the target mRNA knockdown amounted to 90%.

The substance “RNA1{r(G)p.r(C)p.r(A)p.r(A)p.r(C)p.r(U)p.r(C)p.r(A)p.r(U)p.r(G)p.r(G)p.r(U)p.r(U)p.r(C)p.r(A)p.r(U)p.r(G)p.r(C)p.r(U)p.r(T)p.r(T)}|RNA2{r(A)p.r(G)p.r(C)p.r(A)p.r(U)p.r(G)p.r(A)p.r(A)p.r(C)p.r(C)p.r(A)p.r(U)p.r(G)p.r(A)p.r(G)p.r(U)p.r(U)p.r(G)p.r(C)p.d(T)p.d(T)}$$$RNA1{StrandType:ss}|RNA2{StrandType:as}$” came in with a target mRNA knockdown of 40%.

“RNA1{r(C)p.r(U)p.r(U)p.r(A)p.r(C)p.r(G)p.r(C)p.r(U)p.r(G)p.r(A)p.r(G)p.r(U)p.r(A)p.r(C)p.r(U)p.r(U)p.r(C)p.r(G)p.r(A)p.r(T)p.r(T)}|RNA2{r(U)p.r(C)p.r(G)p.r(A)p.r(A)p.r(G)p.r(U)p.r(A)p.r(C)p.r(U)p.r(C)p.r(A)p.r(G)p.r(C)p.[lna](G)p.r(U)p.r(A)p.r(A)p.r(G)p.r(T)p.r(T)}$$$RNA1{StrandType:ss}|RNA2{StrandType:as}$” yielded a target mRNA knockdown of 85%.

“RNA1{r(G)p.r(U)p.r(A)p.r(U)p.r(G)p.r(A)p.r(C)p.r(C)p.r(G)p.r(A)p.r(C)p.r(U)p.r(A)p.r(C)p.r(G)p.r(C)p.r(G)p.r(U)p.r(A)p.r(T)p.r(T)}|RNA2{r(U)p.r(U)p.r(C)p.r(A)p.r(G)p.r(U)p.r(G)p.r(U)p.r(G)p.r(A)p.r(U)p.r(G)p.r(A)p.r(C)p.r(A)p.[una](C)p.r(U)p.r(U)p.r(G)p.r(T)p.r(T)}$$$RNA1{StrandType:ss}|RNA2{StrandType:as}$” had a target mRNA knockdown of 29%.

Regarding “RNA1{[s4r](C)p.[s4r](G)p.[s4r](U)p.[s4r](A)p.[s4r](C)p.[s4r](G)p.r(C)p.r(G)p.r(G)p.r(A)p.r(A)p.r(U)p.r(A)p.[s4r](C)p.[s4r](U)p.[s4r](U)p.[s4r](C)p.[s4r](G)p.[s4r](A)p.r(T)p.r(T)}|RNA2{[s4r](U)p.[s4r](C)p.[s4r](G)p.[s4r](A)p.[s4r](A)p.[s4r](G)p.r(U)p.r(A)p.r(U)p.r(U)p.r(C)p.r(C)p.r(G)p.[s4r](C)p.[s4r](G)p.[s4r](U)p.[s4r](A)p.[s4r](C)p.[s4r](G)p.r(T)p.r(T)}$$$RNA1{StrandType:ss}|RNA2{StrandType:as}$”, the target mRNA knockdown turned out to be 0%.

The substance “RNA1{r(G)p.r(G)p.r(C)p.r(C)p.r(U)p.r(U)p.r(U)p.r(C)p.r(U)p.r(C)p.r(U)p.r(C)p.r(U)p.r(A)p.r(G)p.r(A)p.r(U)p.r(A)p.r(U)p.r(T)p.r(T)}|RNA2{r(A)p.m(U)p.r(A)p.r(U)p.r(C)p.m(U)p.r(A)p.r(G)p.r(A)p.r(G)p.r(A)p.r(G)p.r(A)p.r(A)p.r(A)p.r(G)p.r(G)p.r(C)p.r(C)p.r(T)p.r(T)}$$$RNA1{StrandType:ss}|RNA2{StrandType:as}$” had a target mRNA knockdown of 90%.

On to “RNA1{r(A)p.r(U)p.r(C)p.r(G)p.r(C)p.[fl2r](U)p.r(G)p.r(C)p.[fl2r](U)p.r(C)p.r(C)p.[fl2r](U)p.r(C)p.r(C)p.r(U)p.r(C)p.r(C)p.r(U)p.r(C)p.r(T)p.r(T)}|RNA2{r(G)p.r(A)p.r(G)p.r(G)p.r(A)p.r(G)p.r(G)p.r(A)p.r(G)p.r(G)p.r(A)p.r(G)p.[fl2r](C)p.r(A)p.r(G)p.r(C)p.r(G)p.r(A)p.r(U)p.r(T)p.r(T)}$$$RNA1{StrandType:ss}|RNA2{StrandType:as}$”, for which the target mRNA knockdown was 69%.

For the substance “RNA1{r(C)p.r(G)p.r(U)p.r(A)p.r(C)p.r(G)p.r(C)p.r(G)p.r(G)p.r(A)p.r(A)p.r(U)p.r(A)p.[s4r](C)p.[s4r](U)p.[s4r](U)p.[s4r](C)p.[s4r](G)p.[s4r](A)p.r(T)p.r(T)}|RNA2{[s4r](U)p.[s4r](C)p.[s4r](G)p.[s4r](A)p.[s4r](A)p.[s4r](G)p.r(U)p.r(A)p.r(U)p.r(U)p.r(C)p.r(C)p.r(G)p.r(C)p.r(G)p.r(U)p.r(A)p.r(C)p.r(G)p.r(T)p.r(T)}$$$RNA1{StrandType:ss}|RNA2{StrandType:as}$”, the target mRNA knockdown turned out to be 10.9%.
